Laboratory results from PMC9116245, “New 1,2,3-triazole linked ciprofloxacin-chalcones induce DNA damage by inhibiting human topoisomerase I& II and tubulin polymerization” (Journal of Enzyme Inhibition and Medicinal Chemistry, 2022).

Assays:
786-0 = assay: NCI one-dose screen; format: cell-based; conditions: Homo sapiens; 786-0, 10 µM; read-out: Growth Percent
Method: (§1) For screening of anticancer properties, all the developed compounds were chosen by the (NCI) for in-vitro antitumor evaluation. The assay was carried out using 59 human cancer cell lines obtained from nine tumour subpanels (breast, ovarian, melanoma, leukaemia, renal, CNS, lung, prostate, and colon cancer cell lines). Compounds were assessed at a 10 µM concentration. […] Also, hybrids 4a, 4b, 4e, 4i and 4j produced significant anti-proliferative effect in several cancer cells, particularly in leukaemia (RPMI-8226) and colon (HCT116) cells with growth percent of 47.87, −14.59, −24.56, −24.42, −15.84, −9.74, −53.36, −10.26, −31.29, and −39.51%, respectively.
(§2) The method description for NCI anticancer screening is provided in detail in the standard NCI-60 testing protocol.

A549/ATCC = assay: NCI one-dose screen; format: cell-based; conditions: Homo sapiens, read-out: Growth Percent
Method: as §1, §2

ACHN = assay: NCI one-dose screen; format: cell-based; conditions: Homo sapiens, read-out: Growth Percent
Method: as §1, §2

CCRF-CEM = assay: NCI one-dose screen; format: cell-based; conditions: Homo sapiens, read-out: Growth Percent
Method: as §1, §2

DU-145 = assay: NCI one-dose screen; format: cell-based; conditions: Homo sapiens; DU-145, 10 µM; read-out: Growth Percent
Method: as §1, §2

HCC-2998 = assay: NCI one-dose screen; format: cell-based; conditions: Homo sapiens; HCC-2998, 10 µM; read-out: Growth Percent
Method: as §1, §2

HOP-62 = assay: NCI one-dose screen; format: cell-based; conditions: Homo sapiens; HOP-62, 10 µM; read-out: Growth Percent
Method: as §1, §2

HT29 = assay: NCI one-dose screen; format: cell-based; conditions: Homo sapiens, HT-29; HT29, 10 µM; read-out: Growth Percent
Method: as §1, §2

IGROV1 = assay: NCI one-dose screen; format: cell-based; conditions: Homo sapiens, IGROV-1; IGROV1, 10 µM; read-out: Growth Percent
Method: as §1, §2

LOX IMVI = assay: NCI one-dose screen; format: cell-based; conditions: Homo sapiens, read-out: Growth Percent
Method: as §1, §2

MDA-MB-435 = assay: NCI one-dose screen; format: cell-based; conditions: Homo sapiens; MDA-MB-435, 10 µM; read-out: Growth Percent
Method: as §1, §2

MDA-MB-468 = assay: NCI one-dose screen; format: cell-based; conditions: Homo sapiens; MDA-MB-468, 10 µM; read-out: Growth Percent
Method: as §1, §2

NCI-H226 = assay: NCI one-dose screen; format: cell-based; conditions: Homo sapiens; NCI-H226, 10 µM; read-out: Growth Percent
Method: as §1, §2

NCI-H460 = assay: NCI one-dose screen; format: cell-based; conditions: Homo sapiens; NCI-H460, 10 µM; read-out: Growth Percent
Method: as §1, §2

NCI-H522 = assay: NCI one-dose screen; format: cell-based; conditions: Homo sapiens; NCI-H522, 10 µM; read-out: Growth Percent
Method: as §1, §2

OVCAR-4 = assay: NCI one-dose screen; format: cell-based; conditions: Homo sapiens; OVCAR-4, 10 µM; read-out: Growth Percent
Method: as §1, §2

OVCAR-8 = assay: NCI one-dose screen; format: cell-based; conditions: Homo sapiens; OVCAR-8, 10 µM; read-out: Growth Percent
Method: as §1, §2

PC-3 = assay: NCI one-dose screen; format: cell-based; conditions: Homo sapiens; PC-3, 10 µM; read-out: Growth Percent
Method: as §1, §2

RXF 393 = assay: NCI one-dose screen; format: cell-based; conditions: Homo sapiens; RXF 393, 10 µM; read-out: Growth Percent
Method: as §1, §2

SK-MEL-5 = assay: NCI one-dose screen; format: cell-based; conditions: Homo sapiens; SK-MEL-5, 10 µM; read-out: Growth Percent
Method: as §1, §2

SK-OV-3 = assay: NCI one-dose screen; format: cell-based; conditions: Homo sapiens; SK-OV-3, 10 µM; read-out: Growth Percent
Method: as §1, §2

SN12C = assay: NCI one-dose screen; format: cell-based; conditions: Homo sapiens, read-out: Growth Percent
Method: as §1, §2

SNB-19 = assay: NCI one-dose screen; format: cell-based; conditions: Homo sapiens; SNB-19, 10 µM; read-out: Growth Percent
Method: as §1, §2

SNB-75 = assay: NCI one-dose screen; format: cell-based; conditions: Homo sapiens; SNB-75, 10 µM; read-out: Growth Percent
Method: as §1, §2

SR = assay: NCI one-dose screen; format: cell-based; conditions: Homo sapiens, read-out: Growth Percent
Method: as §1, §2

SW-620 = assay: NCI one-dose screen; format: cell-based; conditions: Homo sapiens; SW-620, 10 µM; read-out: Growth Percent
Method: as §1, §2

TK-10 = assay: NCI one-dose screen; format: cell-based; conditions: Homo sapiens; TK-10, 10 µM; read-out: Growth Percent
Method: as §1, §2

UACC-257 = assay: NCI one-dose screen; format: cell-based; conditions: Homo sapiens; UACC-257, 10 µM; read-out: Growth Percent
Method: as §1, §2

UACC-62 = assay: NCI one-dose screen; format: cell-based; conditions: Homo sapiens; UACC-62, 10 µM; read-out: Growth Percent
Method: as §1, §2

HCT-116 = assay: NCI one-dose screen; format: cell-based, human; conditions: HCT-116, 10 µM; for activity at 10 µM: Homo sapiens, read-out: Growth Percent
Method: as §1, §2

RPMI-8226 = assay: NCI one-dose screen; format: cell-based, human; conditions: RPMI-8226, 10 µM; for activity at 10 µM: Homo sapiens, read-out: Growth Percent
Method: as §1, §2

[1] = system: 59 human cancer cell lines; assay: NCI one-dose screen, whole panel; format: cell-based; conditions: for activity at 10 µM: Homo sapiens, mean over the panel, read-out: Mean Growth Percent
Method: as §1, §2

Caco-2 = assay: MTT assay; format: cell-based; conditions: Homo sapiens; Caco-2, MTT assay, 24 h incubation
Method: (§3) The proliferation of colorectal cancer cells (HCT116, HT29 and Caco-2) was assessed using MTT assay as previously reported. Cells were treated with increasing concentrations of 1, 5, 10, 20, 40, 80 or 100 µM of CP hybrids 4a-j, doxorubicin, or DMSO. See Supplementary Appendix A.

HCT116 = assay: MTT assay; format: cell-based; conditions: Homo sapiens, HCT-116, 24 h incubation
Method: as §3

HT-29 = assay: MTT assay; format: cell-based; conditions: Homo sapiens; HT-29, MTT assay, 24 h incubation
Method: as §3

Structure (SMILES) | activity at 10 µM (786-0) | activity at 10 µM (A549/ATCC) | activity at 10 µM (CCRF-CEM) | activity at 10 µM (DU-145) | activity at 10 µM (HCC-2998) | activity at 10 µM (HOP-62) | activity at 10 µM (HT29) | activity at 10 µM (IGROV1) | activity at 10 µM (LOX IMVI) | activity at 10 µM (MDA-MB-435) | activity at 10 µM (MDA-MB-468) | activity at 10 µM (NCI-H226) | activity at 10 µM (NCI-H460) | activity at 10 µM (NCI-H522) | activity at 10 µM (OVCAR-4) | activity at 10 µM (OVCAR-8) | activity at 10 µM (PC-3) | activity at 10 µM (RXF 393) | activity at 10 µM (SK-MEL-5) | activity at 10 µM (SK-OV-3) | also measured
Cc1ccc(/C=C/C(=O)c2ccc(-n3cc(CN4CCN(c5cc6c(cc5F)c(=O)c(C(=O)O)cn6C5CC5)CC4)nn3)cc2)cc1 [Compound 4f, (E)-1-cyclopropyl-6-fluoro-4-oxo-7-(4-((1-(4-(3-(p-tolyl)acryloyl)phenyl)-1H-1,2,3-triazol-4-yl)methyl)piperazin-1-yl)-1,4-dihydroquinoline-3-carboxylic acid] | 76.7% | 87.3% | 56.3% | 78.9% | 98.5% | 87.4% | 91.7% | 74.2% | 50.4% | 86.6% | 92.2% | 84.5% | 85.8% | 78.3% | 91.4% | 79% | 82% | 88.4% | 91.1% | 78.4% | activity at 10 µM (ACHN): 93.7%; activity at 10 µM (SN12C): 44.9%; activity at 10 µM (SNB-19): 86.9%; activity at 10 µM (SNB-75): 93.6%; activity at 10 µM (SR): 16.6%; activity at 10 µM (SW-620): 95.5%; activity at 10 µM (TK-10): 91.4%; activity at 10 µM (UACC-257): 95.8%; activity at 10 µM (UACC-62): 83%; activity at 10 µM (HCT-116): 7.82%; activity at 10 µM (RPMI-8226): 34.2%; activity at 10 µM [1]: 80.3%; IC50 (Caco-2): 10.1 ± 2.82 µM; IC50 (HCT116): 7.22 ± 1.45 µM; IC50 (HT-29): 14.7 ± 1.81 µM
COc1cc(/C=C/C(=O)c2ccc(-n3cc(CN4CCN(c5cc6c(cc5F)c(=O)c(C(=O)O)cn6C5CC5)CC4)nn3)cc2)cc(OC)c1OC [Compound 4j, (E)-1-cyclopropyl-6-fluoro-4-oxo-7–(4-((1–(4-(3-(3,4,5-trimethoxyphenyl)acryloyl)phenyl)-1H-1,2,3-triazol-4-yl)methyl)piperazin-1-yl)-1,4-dihydroquinoline-3-carboxylic acid] | 43.6% | 15.7% | 3.05% | 45.8% | -39.7% | 38.7% | 4.76% | -24.8% | -1.51% | 5.4% | -7.19% | 32.4% | 53.1% | 49.5% | 73.7% | 39.7% | 9.95% | 4.51% | 50.9% | 67.5% | activity at 10 µM (SN12C): 14.9%; activity at 10 µM (SNB-19): 44.7%; activity at 10 µM (SNB-75): 65.5%; activity at 10 µM (SR): -12.4%; activity at 10 µM (SW-620): 9.41%; activity at 10 µM (TK-10): 80%; activity at 10 µM (UACC-257): 62%; activity at 10 µM (UACC-62): 54.1%; Growth Percent (HCT-116): -39.51%; activity at 10 µM (HCT-116): -39.5%; activity at 10 µM (RPMI-8226): -15.8%; Growth Percent (RPMI-8226): -15.84%; activity at 10 µM [1]: 33.7%; Growth Percent ([1]; majority of cancer cell lines, 10 µM): 67.46 to −39.69%; IC50 (Caco-2): 7.14 ± 2.48 µM; IC50 (HCT116): 2.53 ± 0.31 µM; IC50 (HT-29): 13.2 ± 2.4 µM
